Experimental data from US20260042759A1, “INHIBITOR CONTAINING BICYCLIC DERIVATIVE, PREPARATION METHOD THEREFOR AND USE THEREOF” (SHANGHAI HANSOH BIOMEDICAL CO., LTD., priority 2019, published 2026).

Legend:
[1] = molecular target: T1, KDR kinase (Homo sapiens, UniProt P35968); assay: HTRF kinase assay, KDR; assay type: biochemical; details: for IC50: HTRF, ATP at Km; for Ratio (KDR/RET): KDR IC50 / RET IC50
T1 construct: purchased Carna 08-191
Text: • KDR kinase was purchased from Carna Company, and the article number was 08-191; • HTRF KinEASE-TK kit was purchased from Cisbio Company, and the article number was 62TK0PEC; • ATP was purchased from Thermofisher Company, and the article number was PV3227; • 384-well plate was purchased from PerkinElmer Company, and the article number was 6007290.
In this experiment, the homogeneous time-resolved fluorescence (HTRF) method was used for the detection of compounds on KDR kinase activity.

[2] = molecular target: T2, RET (Homo sapiens, UniProt P07949); assay: HTRF kinase assay, RET wild-type; assay type: biochemical; details: ATP at Km
T2 construct: purchased Carna 08-159
T2 sequence (P07949 29-1114): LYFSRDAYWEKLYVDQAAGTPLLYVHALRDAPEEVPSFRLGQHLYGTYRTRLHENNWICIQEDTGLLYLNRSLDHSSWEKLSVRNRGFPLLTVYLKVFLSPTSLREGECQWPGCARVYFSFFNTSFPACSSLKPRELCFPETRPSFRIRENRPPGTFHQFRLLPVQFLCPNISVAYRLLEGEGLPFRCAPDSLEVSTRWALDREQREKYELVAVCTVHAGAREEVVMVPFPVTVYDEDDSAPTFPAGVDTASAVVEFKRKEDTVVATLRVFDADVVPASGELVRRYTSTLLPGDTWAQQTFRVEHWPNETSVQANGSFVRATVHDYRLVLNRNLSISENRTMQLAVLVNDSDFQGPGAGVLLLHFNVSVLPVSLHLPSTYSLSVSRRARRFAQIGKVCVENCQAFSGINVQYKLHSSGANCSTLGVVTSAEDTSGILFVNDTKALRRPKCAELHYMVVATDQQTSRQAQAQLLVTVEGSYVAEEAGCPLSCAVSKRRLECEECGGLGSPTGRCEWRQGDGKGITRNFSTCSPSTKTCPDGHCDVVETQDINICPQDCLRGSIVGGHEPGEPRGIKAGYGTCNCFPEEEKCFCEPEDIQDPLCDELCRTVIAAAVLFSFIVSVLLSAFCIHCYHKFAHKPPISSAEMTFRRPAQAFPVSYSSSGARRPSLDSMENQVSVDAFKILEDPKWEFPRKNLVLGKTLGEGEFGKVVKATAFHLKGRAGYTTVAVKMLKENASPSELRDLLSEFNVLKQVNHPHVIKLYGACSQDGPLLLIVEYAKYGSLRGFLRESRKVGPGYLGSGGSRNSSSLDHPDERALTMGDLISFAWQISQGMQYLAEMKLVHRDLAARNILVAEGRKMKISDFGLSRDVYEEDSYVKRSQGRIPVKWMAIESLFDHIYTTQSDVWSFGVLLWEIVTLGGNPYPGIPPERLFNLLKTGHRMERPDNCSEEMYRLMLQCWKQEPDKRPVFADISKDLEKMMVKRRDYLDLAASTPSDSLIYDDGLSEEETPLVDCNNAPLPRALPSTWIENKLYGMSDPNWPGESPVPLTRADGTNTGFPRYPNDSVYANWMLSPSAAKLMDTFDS
Text: • RET enzyme was purchased from Carna Company, and the article number was 08-159; • RET M918T enzyme was purchased from Carna Company, and the article number was 08-508; • KIF5B-RET was purchased from SignalChem Company, the article number was R02-19FG-05; • CCDC6-RET was purchased from SignalChem Company, the article number was R02-19BG-05; • RET V804M enzyme was purchased from Thermofisher Company, and the article number was PV6223; • RET V804L enzyme was purchased from Thermofisher Company, and the article number was PV4397; • HTRF KinEASE-TK kit was purchased from Cisbio Company, and the article number was 62TK0PEC; • ATP was purchased from Thermofisher Company, and the article number was PV3227; • 384-well plate was purchased from PerkinElmer Company, and the article number was 6007290.
In this experiment, the homogeneous time-resolved fluorescence (HTRF) method was used for the detection of compounds on RET kinase activity.

[3] = system: phosphorylation of ERK, a downstream signal factor of TT cells; assay: ERK phosphorylation in TT cells (Western Blot); assay type: cell-based, human; details: for inhibition of the phosphorylation level of ERK in TT cells, overall: 3.7-300 nM, 2 hours
Procedure: In this experiment, the inhibitory effect of compounds on the phosphorylation level of ERK, a downstream signaling factor in TT cells, was measured by Western Blot method. When TT cells were cultured to the appropriate fusion degree, the cells were collected and adjusted to a suitable cell concentration using complete medium, the cell suspension was spread in a 24-well plate, 1 mL per well, and placed in a 37° C., 5% CO2 incubator overnight, and compound dilutions of different concentrations (3.7 nM, 11.1 nM, 33.3 nM, 100 nM, 300 nM) were added at 37° C. and acted for 2 hours; the cell supernatant was aspirated, washed one time with PBS, and the proteins were collected with lysate; after protein denaturation, Western blot experiments were performed: performing protein electrophoresis at 120V for approximately 75 minutes, followed by 45 minutes of transfer to PVDF membranes at 10V with a semi-dry transfer instrument, enclosing at 5% BSA for 1 hour at room temperature, and then PVDF membranes were cut into strips of appropriate size and incubated with prepared antibody dilutions overnight at 4° C. and washed 6 times with TBST, followed by imaging with goat anti-mouse secondary antibody and sheep anti-rabbit secondary antibody for 1 hour at room temperature, and the membrane was washed 6 times with TBST for imaging in the Biorad ChemiDoc™ MP Imaging System.
The inhibitory effect of compounds on ERK phosphorylation levels in TT cells at different concentrations was determined by detecting protein bands.

[4] = system: TT cells (MTC, RET C634W); assay: TT cell proliferation (CellTiter-Glo); assay type: cell-based, human
Procedure: When TT cells were cultured to the appropriate fusion level, TT cells were collected, and the cells were adjusted to the appropriate cell concentration using complete medium, and the cell suspension was spread in a 96-well plate, 90 µL per well, and placed in a 37° C., 5% CO2 incubator overnight; and compound solutions of different concentrations were prepared using DMSO and culture medium; and a solvent control was set, the compound solution was added to a 96-well plate, 10 µL per well, at 37° C. in a 5% CO2 incubator for 72 hours; CellTiter-Glo solution was added thereto and the mixture was mixed well by shaking, incubated for 10 min in the dark, and read by BioTek Synergy H1 microplate reader.
The luminescence signal values were used to calculate the inhibition rate, the concentration and the inhibition rate were fitted to a nonlinear regression curve using Graphpad Prism software.

[5] = system: TT xenograft tumor; assay: Subcutaneous xenograft tumor model of human thyroid cancer cell TT; assay type: in vivo, BALB/c nude mice; details: for Tumor inhibition rate TGI d 22 / Tumor volume (mm^3, mean ± SEM) d 22: oral BID 21 days; for Tumor volume (mm^3, mean ± SEM) d 0: oral BID
Procedure: TT cells were cultured in vitro in a monolayer under the following conditions: F-12K medium with 20% heat-inactivated fetal bovine serum and 1% penicillin-streptomycin double antibodies at 37° C. and 5% CO2. Trypsin-EDTA was used twice a week digestion for digestion treatment passaging. When cells were in an exponential growth period, cells were collected, counted and inoculated.
TT cells were collected when they were full in a logarithmic growth period, ensuring over 90% of vitality. 0.2 mL cell suspension containing about 1×10^7 of TT cells (cells suspended in basic F-12K medium and added with 50% Matrigel) was subcutaneously inoculated into the right back tumor of each mouse […].
• 1. The day of grouping was day 0 (DO). The interval of BID administration was 6-8 h/18-16 h. The first dose was given in the afternoon of day DO and the last dose was given in the morning of day D21. • 2. Dosing volume: […] according to the body weight of nude mice.
Animal grouping: Before administration, the animals were weighed and the tumor volume was measured. The mice were randomly grouped according to tumor volume (randomized grouping design) with 5 animals per group.
Experimental index: The diameter of tumor was measured by vernier caliper twice a week. The tumor volume was calculated by the formula: V=a×b^2/2, a and b denote the long and short diameter of the tumor, respectively. The tumor suppressive efficacy of the compounds was evaluated by TGI (%). TGI (%)=(1−(TVTreatment/Dx−TVTreatment/D1)/(TVControl/Dx−TVControl/D1))×[…].
T test was used for comparison between two groups. One-way ANOVA was used for comparison among three or more groups. If there were significant differences in F values, multiple comparisons should be made after ANOVA analysis. GraphPadPrism 5.0 was used for all data analysis.

[6] = Balb/C mouse pharmacokinetics, oral; assay type: in vivo; details: Balb/C mice, p.o., 5 mg/kg, plasma
Procedure: The pharmacokinetic behavior of the following compound embodiments, administered orally at a dose of 5 mg/kg in plasma in mice, was studied using Balb/C mice as test animals.
Balb/C Mouse 6/embodiment, male, Shanghai Jiesijie Laboratory Animal Co., Ltd, Animal Production License No. (SCXK (Shanghai) 2013-0006 N0.311620400001794).
Balb/C mice, males; p.o. after overnight fasting, respectively, at a dose of 5 mg/kg, administered in a volume of 10 mL/kg.
0.5% CMC-Na(1% Tween80) was dissolved by ultrasound, and prepared into clear solution or uniform suspension.
Before and after administration, 0.1 mL of blood was collected from mice at 0, 0.5, 1, 2, 4, 6, 8 and 24 hours by orbital collection, placed in EDTA-K2 tubes, centrifuged at 6000 rpm at 4° C. for 6 min to separate plasma, and stored at −80° C.
40 μL of plasma sample was precipitated by adding 160 μL of acetonitrile, mixed and centrifuged at 3500×g for 5-20 min.
100 μL of the supernatant solution after treatment was taken to analyze the concentration of the test compound by LC/MS/MS.
The main pharmacokinetic parameters were calculated using WinNonlin 6.1 and the results of the mouse pharmacokinetic experiments were shown in Table 8 below.

T1 sequence (P35968 20-1356): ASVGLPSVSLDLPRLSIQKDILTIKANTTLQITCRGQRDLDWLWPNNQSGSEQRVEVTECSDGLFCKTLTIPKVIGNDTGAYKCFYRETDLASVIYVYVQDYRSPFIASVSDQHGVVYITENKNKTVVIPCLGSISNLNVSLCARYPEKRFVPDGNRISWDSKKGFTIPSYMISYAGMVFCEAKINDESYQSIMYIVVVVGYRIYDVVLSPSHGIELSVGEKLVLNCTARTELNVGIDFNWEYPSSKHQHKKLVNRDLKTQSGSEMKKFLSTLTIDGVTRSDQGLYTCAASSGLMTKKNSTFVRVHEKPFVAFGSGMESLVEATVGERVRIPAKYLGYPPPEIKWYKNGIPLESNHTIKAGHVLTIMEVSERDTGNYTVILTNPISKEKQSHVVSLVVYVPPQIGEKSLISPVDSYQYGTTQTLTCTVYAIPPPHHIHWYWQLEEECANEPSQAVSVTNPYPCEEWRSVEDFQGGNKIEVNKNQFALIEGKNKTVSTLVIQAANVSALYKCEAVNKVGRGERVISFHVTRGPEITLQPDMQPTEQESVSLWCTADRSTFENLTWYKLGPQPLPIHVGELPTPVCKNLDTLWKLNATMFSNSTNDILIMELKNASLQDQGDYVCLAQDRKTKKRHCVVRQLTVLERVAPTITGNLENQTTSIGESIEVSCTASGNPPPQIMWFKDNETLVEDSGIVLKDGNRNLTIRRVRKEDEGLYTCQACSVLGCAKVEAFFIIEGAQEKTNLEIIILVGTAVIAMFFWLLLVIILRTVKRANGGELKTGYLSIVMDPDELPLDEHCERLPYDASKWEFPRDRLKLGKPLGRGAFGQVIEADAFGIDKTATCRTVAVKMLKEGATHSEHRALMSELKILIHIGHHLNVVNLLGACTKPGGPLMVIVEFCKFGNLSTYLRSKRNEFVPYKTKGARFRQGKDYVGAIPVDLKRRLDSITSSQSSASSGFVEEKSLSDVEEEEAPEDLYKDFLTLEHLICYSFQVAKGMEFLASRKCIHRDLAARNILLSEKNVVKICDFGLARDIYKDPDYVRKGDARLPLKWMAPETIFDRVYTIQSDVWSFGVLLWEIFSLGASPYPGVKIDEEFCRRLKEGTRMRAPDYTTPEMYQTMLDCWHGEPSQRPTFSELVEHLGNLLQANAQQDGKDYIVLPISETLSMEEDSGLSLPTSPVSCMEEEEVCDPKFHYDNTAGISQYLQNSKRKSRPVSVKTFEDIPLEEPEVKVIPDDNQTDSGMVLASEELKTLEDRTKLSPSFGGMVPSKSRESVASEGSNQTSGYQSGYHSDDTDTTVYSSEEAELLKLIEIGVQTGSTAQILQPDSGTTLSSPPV

6-((1-Imino-1-hydroxy-1l6-thietan-3-yl)methoxy)-4-(6-(6-((6-methoxypyridin-3-yl)methyl)-3,6-diazabicyclo[3.1.1]heptan-3-yl)pyridin-3-yl)pyrazolo[1,5-a]pyridine-3-carbonitrile [Embodiment 85]
IC50 [1]: 69 nM
Ratio (KDR/RET) [1]: 55
IC50 [2]: 1.3 nM

C#C[C@@](C)(O)COc1cc(-c2ccc(N3CC4CC(C3)N4Cc3ccc(OC)nc3)nc2)c2c(C#N)cnn2c1 [Embodiment 152, 6-(((R)-2-hydroxy-2-methylbut-3-yn-1-yl)oxy)-4-(6-(6-((6-methoxypyridin-3-yl)methyl)-3,6-diazabicyclo[3.1.1]heptan-3-yl)pyridin-3-yl)pyrazolo[1,5-a]pyridine-3-carbonitrile]
inhibition of the phosphorylation level of ERK in TT cells, overall [3]: significantly inhibit

CC(C)(O)COc1cc(-c2ccc(N3CCC(N)(C(=O)N4CCc5ccccc54)CC3)nc2)c2c(C#N)cnn2c1 [Embodiment 62, 4-(6-(4-Amino-4-(indoline-1-carbonyl)piperidin-1-yl)pyridin-3-yl)-6-(2-hydroxy-2-methylpropoxy)pyrazolo[1,5-a]pyridine-3-carbonitrile]
IC50 [1]: 17 nM
Ratio (KDR/RET) [1]: 14
IC50 [2]: 1.3 nM

COc1ccc(OC2CCN(c3ccc(-c4cc(C#CC(C)(C)O)cn5ncc(C#N)c45)cn3)CC2)cn1 [Embodiment 32, 6-(3-Hydroxy-3-methylbut-1-yn-1-yl)-4-(6-(4-((6-methoxypyridin-3-yl)oxo)piperidin-1-yl)pyridin-3-yl)pyrazolo[1,5-a]pyridine-3-carbonitrile]
IC50 [1]: 1.6 nM
Ratio (KDR/RET) [1]: 1.3
IC50 [2]: 1.22 nM

C#C[C@](C)(O)COc1cc(-c2ccc(N3CC4CC(C3)N4Cc3ccc(OC)nc3)nc2)c2c(C#N)cnn2c1 [Embodiment 153, 6-(((S)-2-hydroxy-2-methylbut-3-yn-1-yl)oxy)-4-(6-(6-((6-methoxypyridin-3-yl)methyl)-3,6-diazabicyclo[3.1.1]heptan-3-yl)pyridin-3-yl)pyrazolo[1,5-a]pyridine-3-carbonitrile]
inhibition of ERK phosphorylation ([3]; 11.1 nM, 2 hours at 37° C., TT cells): inhibit half of the ERK phosphorylation level
inhibition of the phosphorylation level of ERK in TT cells, overall [3]: significantly inhibit

COc1ccc(CN2C3CC2CN(c2ccc(-c4cc(/C=C/C(C)(C)O)cn5ncc(C#N)c45)cn2)C3)cn1 [Embodiment 127]
IC50 ([4]; Homo sapiens, TT, 72 h): 5.87 nM
IC50 [1]: 6.5 nM
Ratio (KDR/RET) [1]: 25
IC50 [2]: 0.26 nM

COc1ccc(CN2C3CC2CN(c2ccc(-c4cc(OCC56CC(C#N)(C5)C6)cn5ncc(C#N)c45)cn2)C3)cn1 [Embodiment 138, 6-((3-Cyanobicyclo[1.1.1]pentan-1-yl)methoxy)-4-(6-(6-((6-methoxypyridin-3-yl)methyl)-3,6-diazabicyclo[3.1.1]heptan-3-yl)pyridin-3-yl)pyrazolo[1,5-a]pyridine-3-carbonitrile]
IC50 ([4]; 72 hours): 25.1 nM

COc1ncc(CN2C3CC2CN(c2ccc(-c4cc(C#CC(C)(C)O)cn5ncc(C#N)c45)cn2)C3)cc1F [Embodiment 94, 4-(6-(6-((5-Fluoro-6-methoxypyridin-3-yl)methyl)-3,6-diazabicyclo[3.1.1]heptan-3-yl)pyridin-3-yl)-6-(3-hydroxy-3-methylbut-1-yn-1-yl)pyrazolo[1,5-a]pyridine-3-carbonitrile]
Tumor inhibition rate TGI d 22 ([5]; 30 mg/kg): 99.64%
Tumor volume (mm^3, mean ± SEM) d 22 ([5]; 30 mg/kg): 203.56 ± 31.74 mm^3
Tumor volume (mm^3, mean ± SEM) d 0 ([5]; 30 mg/kg): 199.73 ± 24.07 mm^3

Cc1ccc(F)cc1C(=O)NC1(C)CC2CN(c3ccc(-c4cc(OCC(C)(C)O)cn5ncc(C#N)c45)cn3)CC2C1 (stereo not drawn) [Embodiment 75, N-(2-(5-(3-cyano-6-(2-hydroxy-2-methylpropoxy)pyrazolo[1,5-a]pyridin-4-yl)pyridin-2-yl)-5-methyloctahydrocyclopenta[c]pyrrol-5-yl)-5-fluoro-2-methylbenzamide]
IC50 [1]: 124 nM
Ratio (KDR/RET) [1]: 35
IC50 [2]: 3.6 nM

COc1ccc(CN2C3CC2CN(c2ccc(-c4cc(OCC(C)(C)C#N)cn5ncc(C#N)c45)cn2)C3)cn1 [Embodiment 34, 6-(2-Cyano-2-methylpropoxy)-4-(6-(6-((6-methoxypyridin-3-yl)methyl)-3,6-diazabicyclo[3.1.1]heptan-3-yl)pyridin-3-yl)pyrazolo[1,5-a]pyridine-3-carbonitrile]
Half-life t1/2 [6]: 4.2 h

COc1ccc(CN2C3CC2CN(c2ccc(-c4cc(N5CC(C)(C#N)C5)cn5ncc(C#N)c45)cn2)C3)cn1 [Embodiment 168, 6-(3-Cyano-3-methylazetidin-1-yl)-4-(6-(6-((6-methoxypyridin-3-yl)methyl)-3,6-diazabicyclo[3.1.1]heptan-3-yl)pyridin-3-yl)pyrazolo[1,5-a]pyridine-3-carbonitrile]
Tumor inhibition rate TGI d 22 ([5]; 10 mg/kg): 129.77%
Tumor volume (mm^3, mean ± SEM) d 22 ([5]; 10 mg/kg): 144.14 ± 8.95 mm^3
Tumor volume (mm^3, mean ± SEM) d 0 ([5]; 10 mg/kg): 205.23 ± 16.57 mm^3
